In ChEMBL document CHEMBL4024730 (Bioorg Med Chem Lett, 2017):

Test system: HeLa
Assay: Cytotoxicity against human HeLa cells assessed as cell death at 1 uM after 24 hrs MTT assay relative to control
Type: cell-based

O=C(/C=C/c1ccccc1)N[C@@H](c1ccccc1)[C@@H](OC(=O)c1ccccc1)C(=O)NC1CCCCC1
Activity: < 10%
